Molecules are shown by their SMILES. Square brackets hold non-standard residues; d marks the D form. Peptide text beside a SMILES is read from it. * marks the point of attachment. dChg = N[C@@H](C(=O)O)C1CCCCC1; pNA = O=[N+]([O-])c1ccc(N*)cc1; dNle = CCCC[C@@H](N)C(=O)O; Ms = CS(=O)(=O)*; Moc = COC(=O)*

This is an account of results in patent US6087119A, “Method for determining the catalytic activity of factor IXa” (Roche Diagnostics GmbH, priority 1996, dated 2000).

One assay deals with rFIXa (human) (Homo sapiens, UniProt P00740). Nature of the assay: Kinetics of cleavage of chromogenic peptide substrates by rFIXa with ethylene glycol (Lineweaver Burk). It is filed as biochemical. Details: coding for the FIX protease domain from amino acid position 181 to 415; Met (ATG start codon) (N); made in house. As to conditions: pH 7.4. Here is the method: (§1) MeSO2 -D-HHT-Gly-Arg-pNA (0.102-1.02 mmol/l)
rFIXa (human), sequence (P00740 227-461): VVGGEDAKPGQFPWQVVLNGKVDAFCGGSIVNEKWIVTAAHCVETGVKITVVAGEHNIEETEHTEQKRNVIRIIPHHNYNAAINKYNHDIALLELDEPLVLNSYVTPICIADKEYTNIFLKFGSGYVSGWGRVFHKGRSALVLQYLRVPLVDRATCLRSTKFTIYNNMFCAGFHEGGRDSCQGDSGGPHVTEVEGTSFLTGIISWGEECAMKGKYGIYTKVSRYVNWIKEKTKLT
rFIXa (human), sequence (P00740 131-226): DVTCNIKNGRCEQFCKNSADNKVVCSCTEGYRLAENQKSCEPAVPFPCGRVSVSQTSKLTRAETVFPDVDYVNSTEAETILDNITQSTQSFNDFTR
0.48 μmol/l rFIXa (human)
MOC-D-Nle-Gly-Arg-pNA (0.102-1.02 mmol/l)
MeSO2 -D-CHG-Gly-Arg-pNA (0.102-1.02 mmol/l)
0.28 μmol/l rFIXa (human)
(§2) The kinetic constants (Kcat /Km) were determined graphically according to Lineweaver Burk (Km and Kcat cannot be determined separately since the straight lines go through the origin).

In a further assay the target is native FIXa (human) (Homo sapiens, UniProt P00740). Put plainly: Kinetics of cleavage of chromogenic peptide substrate by native FIXa with ethylene glycol (Lineweaver Burk). The conditions noted are these: native FIXa 0.29 μmol/l, pH 7.4. It is filed as biochemical. Details: 0.14 μmol/l native FIXa (human). Here is the method: as §1
native FIXa (human), sequence (P00740 227-461 limits assumed): as the sequence (P00740 227-461) above
native FIXa (human), sequence (P00740 47-191 partner limits assumed): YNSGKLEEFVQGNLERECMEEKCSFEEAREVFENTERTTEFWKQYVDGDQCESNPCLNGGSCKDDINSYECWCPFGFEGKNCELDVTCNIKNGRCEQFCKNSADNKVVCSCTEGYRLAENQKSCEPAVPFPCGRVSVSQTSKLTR
0.29 μmol/l native FIXa (human)
as §2

For `CCCC[C@@H](NC(=O)OC)C(=O)NCC(=O)N[C@@H](CCCNC(=N)N)C(=O)Nc1ccc([N+](=O)[O-])cc1` [MOC--D--Nle--Gly--Arg--pNA, MOC-D-Nle-Gly-Arg-pNA] (Moc-[dNle]-Gly-Arg-pNA), the “kkat /Km” value is 326 M⁻¹ s⁻¹ on rFIXa (human) (substrate MOC-D-Nle-Gly-Arg-pNA, rFIXa 0.48 μmol/l, 16% ethylene glycol); 565 M⁻¹ s⁻¹ on rFIXa (human) (substrate MOC-D-Nle-Gly-Arg-pNA, rFIXa 0.48 μmol/l, 25% ethylene glycol); 552 M⁻¹ s⁻¹ on rFIXa (human) (substrate MOC-D-Nle-Gly-Arg-pNA, rFIXa 0.48 μmol/l, 33% ethylene glycol); 360 M⁻¹ s⁻¹ on rFIXa (human) (substrate MOC-D-Nle-Gly-Arg-pNA, rFIXa 0.48 μmol/l, 41% ethylene glycol); 148 M⁻¹ s⁻¹ at rFIXa (human) (substrate MOC-D-Nle-Gly-Arg-pNA, rFIXa 0.48 μmol/l, 50% ethylene glycol).

For `CS(=O)(=O)N[C@@H](C(=O)NCC(=O)N[C@@H](CCCNC(=N)N)C(=O)Nc1ccc([N+](=O)[O-])cc1)C1CCCCC1` [MeSO2 --D--CHG--Gly--Arg--pNA, MeSO2 -D-CHG-Gly-Arg-pNA] (Ms-[dChg]-Gly-Arg-pNA), the “kkat /Km” value at rFIXa (human) (substrate MeSO2-D-CHG-Gly-Arg-pNA, rFIXa […], 8% ethylene glycol) is 637 M⁻¹ s⁻¹; on rFIXa (human) (substrate MeSO2-D-CHG-Gly-Arg-pNA, rFIXa […], 16% ethylene glycol), 1974 M⁻¹ s⁻¹; on rFIXa (human) (substrate MeSO2-D-CHG-Gly-Arg-pNA, rFIXa […], 25% ethylene glycol) it was 2880 M⁻¹ s⁻¹; on rFIXa (human) (substrate MeSO2-D-CHG-Gly-Arg-pNA, rFIXa […], 33% ethylene glycol), 3480 M⁻¹ s⁻¹; on rFIXa (human) (substrate MeSO2-D-CHG-Gly-Arg-pNA, rFIXa […], 41% ethylene glycol), 1929 M⁻¹ s⁻¹; at rFIXa (human) (substrate MeSO2-D-CHG-Gly-Arg-pNA, rFIXa […], 50% ethylene glycol) it was 576 M⁻¹ s⁻¹.

As for `CS(=O)(=O)N[C@H](CC1CCC(O)CC1)C(=O)NCC(=O)N[C@@H](CCCNC(=N)N)C(=O)Nc1ccc([N+](=O)[O-])cc1` (stereo partly drawn) [MeSO2 --D--HHT--Gly--Arg--pNA, MeSO2 -D-HHT-Gly-Arg-pNA], the “kkat /Km” value on native FIXa (human) (8% ethylene glycol) was 299 M⁻¹ s⁻¹; at native FIXa (human) (16% ethylene glycol) it was 737 M⁻¹ s⁻¹; at native FIXa (human) (25% ethylene glycol), 1169 M⁻¹ s⁻¹; at native FIXa (human) (33% ethylene glycol), 1395 M⁻¹ s⁻¹; at native FIXa (human) (41% ethylene glycol) it was 922 M⁻¹ s⁻¹; at native FIXa (human) (50% ethylene glycol), 390 M⁻¹ s⁻¹. The “kkat /Km” value at rFIXa (human) (rFIXa 0.48 μmol/l, 8% ethylene glycol) was 348 M⁻¹ s⁻¹; on rFIXa (human) (rFIXa 0.48 μmol/l, 16% ethylene glycol), 515 M⁻¹ s⁻¹; at rFIXa (human) (rFIXa 0.48 μmol/l, 25% ethylene glycol), 1018 M⁻¹ s⁻¹; on rFIXa (human) (rFIXa 0.48 μmol/l, 33% ethylene glycol) it was 1018 M⁻¹ s⁻¹; at rFIXa (human) (rFIXa 0.48 μmol/l, 41% ethylene glycol), 692 M⁻¹ s⁻¹; at rFIXa (human) (rFIXa 0.48 μmol/l, 50% ethylene glycol), 172 M⁻¹ s⁻¹.
